Read-outs that look alike come from different tables or passages of the source.
How the values were obtained:
HTLV-IIIB = test: p24 antigen production in PHA-activated PBMCs infected with HTLV-IIIB; type: cell-based, HIV-1; settings: for IC90 / inhibition at 10 µM: Human immunodeficiency virus 1, IIIB, PBMC; for IC90: read-out: IC90 (concentration of nucleoside analog that reduced the p24 antigen value of the untreated control by 90%)
Text: The antiviral activities of RV alone and in combination with nucleoside analogs were investigated in PHA-stimulated PBMCs from seronegative donors. RV, ddC, ddI, and AZT were purchased from Sigma (St. Louis, Mo.). The HIV-1 T-cell line adapted isolate HTLV-IIIB was obtained from Dr. Gallo, at the National Institutes of Health AIDS Research and Reference Reagent Program (Catalog #398, Rockville, Md.). Primary strains of HIV-1 were isolated by coculturing 10^7 patient PBMC with an equal number of PHA-stimulated PBMC from a normal donor. Titration of stocks and MT-2 phenotype determination were carried out as described (ACTG Virology Manual, NIH Pub No. 94 3828, 1994). The SI phenotype was determined by assessing viral growth and syncytia formation in the MT-2 cell line obtained from Dr. Richman at the National Institutes of Health AIDS Research and Reference Reagent Program (Catalog #237, Rockville, Md.).
Primary PBMCs were separated from whole blood of HIV seronegative donors by density centrifugation over Ficoll-Hypaque (Sigma). The culture medium consisted of RPMI supplemented with 10% fetal bovine serum (FBS), 2 mM glutamine and penicillin/streptomycin (Gibco, Grand Island, N.Y.).
For infection studies involving PBMCs, cells were stimulated with 2.5 or 10 μg/ml phytohemagglutinin (PHA; Boehringer Mannheim, Indianapolis, Ind.) for 3 days. Stimulated PBMCs were infected by incubation with virus at a multiplicity of infection of 1000 TCID50/10^6 PBMC for 2 hours. PBMCs were then washed three times with PBS and cultured in 5% CO2 at 37° C., in RPMI/10% FBS supplemented with 10 units/ml IL-2 (Boehringer Mannheim) and drugs as appropriate. PBMCs were seeded in 96-well flat-bottom plates at a density of 2×10^5 PBMCs/200 μl. Following 3 days of culture half of the medium was replaced with fresh medium containing IL-2 and drugs. After 7 days of culture, HIV-1 p24 antigen production in the culture supernatant was assayed by ELISA (Coulter, Hialeah, Fla.). The concentration of nucleoside analog, alone and in combination with resveratrol, that reduced the p24 antigen value of the untreated control by 90% (IC90) was calculated by using nonparametric regression analysis. The analysis used the median-effect equation, Fa=1/[1+(Dm/D)]^m, where D is the dose, Fa is the fraction affected, and Dm is the dose required to produce the median effect.
Cells were infected with the T-cell tropic isolate HTLV-IIIB for 2 hours, and then cultured in varying concentrations of RV with or without nucleoside analogs. Virus replication was measured by p24 antigen production by ELISA using a standard commercial kit in the culture supernatants on days 7 and 10 after infection.
Activated PBMCs infected with HTLV-IIIB were cultured in the presence of ddI plus HU (100 μM) or RV (5 and 10 μM). […] Virus production in the presence of the different drug concentrations was evaluated on day 7 after infection.

HIV-1SF162 = test: p24 antigen production in monocyte-derived macrophages infected with HIV-1SF162; type: cell-based; settings: for virus production after drug removal on day 20: 10 μM ddI with or without 10 μM RV, 14 further days
Procedure: MDMs were prepared as described infra, and infected with the SF162 strain of HIV-1 obtained from Dr. Levy at the National Institutes of Health AIDS Research and Reference Reagent Program (Rockville, Md.). Briefly, 25×10^6 freshly isolated PBMCs were cultured for 5 days in T-25 flasks (Coming Costar, Cambridge, Mass.) containing culture medium supplemented with 20% FBS and 10% AB human serum (Gemini Bioproducts, Inc., Calabasas, Calif.). On day 5, non-adherent cells were removed by washing five times with warm RPMI/10%FBS medium. Adherent cells in representative flasks were counted by trypan blue exclusion. By morphology and cytochemical staining for nonspecific esterase (Sigma), more than 97% of cells were macrophages. HIV infection was carried out by adding virus to the flask at a multiplicity of infection of 2000 TCID50/10^6 adherent cells and incubating for 3 hours. Flasks were then washed 3 times with warm RPMI/10%FBS medium and cultured in RPMI containing 20% FBS plus drugs. Every 3 days culture supernatants were collected and fresh medium containing drugs was added to each flask. Virus replication was assayed weekly for p^24 antigen production as described in Example 1 in the supernatant. Cultures were maintained for 3 weeks.
For the present example, cultures were maintained in the presence of 10 μM RV and varying concentrations of ddI. The amount of p24 antigen produced in the supernatant was measured on days 7 and 16 after infection. […] However, a 10-fold or greater potentiation of ddI-antiviral activity was observed when the nucleoside analogue was combined with 10 μM RV.
MDMs derived from 2 seronegative donors were infected with the SF 162 strain of HIV-1 and cultured in the presence of 10 μM ddI, a plasma level attainable in treated individuals. The anti-HIV effect of this concentration of ddI was investigated in the presence or absence of 10 μM RV. DdI alone (10 μM) inhibited viral replication by more than 90% in both donors on day 7 after infection. […] The strong antiviral activity achieved by RV plus ddI on day 16 was further analyzed by removing the drugs from the culture. The drugs were then removed on day 20 and the macrophages maintained in culture for an additional 14 days. In donor #1 MDMs, a virus rebound followed drug removal in the cultures that had been exposed to ddI alone.

| Structure (SMILES) | IC90 (HTLV-IIIB; 168 h, in combination with 5 μM RV, day 7) | IC90 (HTLV-IIIB; 168 h, nucleoside analog alone, day 7) | increase in antiviral activity (HTLV-IIIB; addition of 10 μM RV to 2 μM ddI) | reduction of IC90 value (HTLV-IIIB; in combination with 5 μM RV) | reduction of IC90 value (HTLV-IIIB; in the presence of 10 μM RV) | inhibition at 10 µM (HIV-1SF162; Human immunodeficiency virus 1, Macrophage, 168 h, ddI alone 10 μM, both donors, day 7, read-out: inhibition of viral replication) | virus production after drug removal on day 20 (HIV-1SF162; donor #1 MDMs) | virus production after drug removal on day 20 (HIV-1SF162; donor #2 MDMs) | inhibition at 10 µM (HTLV-IIIB; 168 h, 10 μM RV combined with 0.5 μM ddI, day 7, read-out: inhibition of virus replication) | inhibition at 10 µM (HTLV-IIIB; 168 h, 10 μM RV in combination with 0.25 μM ddI, day 7, read-out: inhibition of HIV-1 replication) | inhibition at 10 µM (HTLV-IIIB; RV 10 μM alone, read-out: inhibition of viral replication) | reduction of virus production (HTLV-IIIB; RV 5 μM alone) | anti-HIV effect (HIV-1SF162; RV 10 μM in the absence of ddI, 2 donors) |
| --- | --- | --- | --- | --- | --- | --- | --- | --- | --- | --- | --- | --- | --- |
| OC[C@@H]1CC[C@H](n2cnc3c(O)ncnc32)O1 [ddI, 2′,3′-dideoxyinosine] | 1.3 µM | 7.5 µM | 200 fold | 5.7 fold | 17.8 fold | > 90% | virus rebound | continued releasing virus |  |  |  |  |  |
| Oc1ccc(/C=C/c2cc(O)cc(O)c2)cc1 [RV, trans-3, 4′, 5-trihydroxystilbene] |  |  |  |  |  |  |  |  | > 99% | 94% | ~30% | approximately 10% | only a modest anti-HIV effect |

Source: patent US6479466B1, “Compositions for treating viral infections, and methods therefor” (University of Maryland, priority 1999, dated 2002)
